The numbers were not newly measured in patent US12649952B2, “NTRK fusion molecules and uses thereof” (Foundation Medicine, Inc., priority 2019, dated 2026), which cites them from elsewhere.

Read-outs that look alike come from different tables or passages of the source. A value given as a limit tells only on which side of the number the result lay.

In series [1] the test system is myeloid leukemia cells.
The test system of series [2] is Ntrk1/Hsp90.
The subject of series [3] is Ntrk1/Hsp90. As to conditions: results in degradation and depletion of Ntrk1.
The subject of series [4] is myeloid leukemia cells. The source holds these as a separate data set.
In another series the test system is neuroblastoma xenograft. As to conditions: in vivo.
The next series concerns preclinical models. As to conditions: variety of preclinical models.
Series [5] relates to lung adenocarcinoma cell line.
Series [6] relates to preclinical tumor models including a xenograft model of lung cancer. As to conditions: in vivo.
The target in the next series is TrkA (Homo sapiens, UniProt P04629). As to conditions: for inhibition of Ntrk1 / NTRK1: result in words.
Chain of TrkA (P04629 33-796): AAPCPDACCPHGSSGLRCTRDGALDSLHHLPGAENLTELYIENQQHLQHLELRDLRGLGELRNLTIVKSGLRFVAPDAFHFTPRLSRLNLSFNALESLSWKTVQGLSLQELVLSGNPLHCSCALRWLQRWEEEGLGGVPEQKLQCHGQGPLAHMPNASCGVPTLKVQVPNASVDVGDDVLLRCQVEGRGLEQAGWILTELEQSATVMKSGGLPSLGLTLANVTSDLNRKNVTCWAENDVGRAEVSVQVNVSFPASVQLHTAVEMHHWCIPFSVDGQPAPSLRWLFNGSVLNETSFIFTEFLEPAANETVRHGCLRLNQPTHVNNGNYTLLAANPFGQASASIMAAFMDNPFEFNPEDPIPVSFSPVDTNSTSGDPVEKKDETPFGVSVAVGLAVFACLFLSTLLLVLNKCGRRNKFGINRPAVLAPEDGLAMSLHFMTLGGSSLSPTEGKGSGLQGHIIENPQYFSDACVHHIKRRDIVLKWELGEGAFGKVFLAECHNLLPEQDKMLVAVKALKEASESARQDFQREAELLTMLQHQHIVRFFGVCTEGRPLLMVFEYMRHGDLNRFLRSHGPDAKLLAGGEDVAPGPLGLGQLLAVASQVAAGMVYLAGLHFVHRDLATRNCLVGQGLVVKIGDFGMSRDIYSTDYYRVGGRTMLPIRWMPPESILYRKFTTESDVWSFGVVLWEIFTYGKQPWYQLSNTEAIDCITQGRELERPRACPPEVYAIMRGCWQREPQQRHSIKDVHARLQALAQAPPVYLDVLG
Series [7] relates to NTRK fusion-positive cancers.
The test system of another series is NTRK gene fusions. As to conditions: after further follow-up, expanded patient population (n=159).
Another series has as its system tumor xenograft models. As to conditions: variety of preclinical tumor xenograft models.
Series [8] relates to lung adenocarcinoma with KRAS mutation. As to conditions: mouse, in vivo.
In series [9] the test system is solid tumors. As to conditions: Phase 1, solid tumors.
Another series has as its target NGF dimer (Homo sapiens, UniProt P01138). As to conditions: read-out: KD for binding the NGF dimer.
The test system of series [10] is NTRK1 fusion-positive tumors. As to conditions: human, in vivo.
Series [11] concerns solid tumors. As to conditions: Phase 1, 56 solid tumor patients.
For series [12], the system named is solid tumors with NTRK fusions. As to conditions: monotherapy; adult and pediatric patients, with and without CNS metastases.
Series [13] has as its system NTRK fusion-positive AML cell lines.
The subject of another series is neuroblastoma. As to conditions: human, in vivo.

Chain of NGF dimer (P01138 122-241): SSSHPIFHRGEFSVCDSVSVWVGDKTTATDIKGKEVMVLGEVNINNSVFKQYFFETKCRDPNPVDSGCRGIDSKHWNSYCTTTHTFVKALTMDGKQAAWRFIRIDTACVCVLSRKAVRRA

As for `CO[C@H]1/C=C\C=C(/C)C(=O)NC2=CC(=O)C(NCCN(C)C)=C(C[C@@H](C)C[C@H](OC)[C@H](O)[C@@H](C)/C=C(\C)[C@@H]1OC(N)=O)C2=O` [17-DMAG], the “growth of myeloid leukemia cells” value in the series with myeloid leukemia cells [1] and in the series on myeloid leukemia cells [4] was “reduced the growth of myeloid leukemia cells” each time. Moreover, the Ntrk1/Hsp90 binding entry with Ntrk1/Hsp90 [2] and with Ntrk1/Hsp90 [3] was “disrupted Ntrk1/Hsp90 binding” throughout. The Ntrk1 level entry in the series on Ntrk1/Hsp90 [2] (consequence of disrupted Ntrk1/Hsp90 binding) is “degradation and depletion of Ntrk1”.
In the case of `CC(C)Oc1cc(Nc2nc(N[C@@H](C)c3ccc(F)cn3)ncc2Cl)n[nH]1` [AZ-23, 5-chloro-N-[(1S)-1-(5-fluoropyridin-2-yl)ethyl]-N′-(5-propan-2-yloxy-1H-pyrazol-3-yl)pyrimidine-2,4-diamine], the tumor growth result in the series on neuroblastoma xenograft is on record as “inhibit tumor growth”.
For the compound `CO[C@]1(COC(=O)CCNC(=O)[C@@H](N)CCCCN)C[C@H]2O[C@]1(C)n1c3ccccc3c3c4c(c5c6ccccc6n2c5c31)C(=O)NC4` [CEP-2563], the anti-tumor activity result with preclinical models is recorded as “anti-tumor activity”.
Turning to `COC(=O)[C@@]1(O)C[C@H]2O[C@]1(C)n1c3ccccc3c3c4c(c5c6ccccc6n2c5c31)C(=O)NC4` [K252a, (9S-(9a, 108,12a))-2,3,9,10,11,12-hexahydro-10-hydroxy-10-(methoxycarbonyl)-9-methyl-9,12-epoxy-1H-diindolo [1,2,3-fg: 3′,2′,1′-kl] pyrrolo [3,4-i][1,6] benzodiazocin-1-one], in [5], the “activation of the anti-apoptotic protein Akt” value is on record as “block activation”, the cell death entry was “promote cell death” and the tumor cell growth entry is given as “reduce tumor cell growth”.
Turning to `Nc1ncc(-c2cnn(C3CCNCC3)c2)cc1-c1nc2ccccc2o1` [KRC-108], in series [6], the antiproliferative activity result is “antiproliferative activity”. Further, the “inhibition of Ntrk1 / NTRK1” value at TrkA was “inhibit NTRK1”.
Turning to `C[C@@H]1CCc2ncc(F)cc2[C@H]2CCCN2c2ccn3ncc(c3n2)C(=O)N1` [LOXO-195], the “confirmed complete or partial response” value in series [7] (10 of 29 evaluable patients, RECIST 1.1, NTRK fusions resistant to other TRK-targeted therapeutics) is given as 34%. The safety and tolerability result in [7] (solid tumor cancer patients with NTRK fusions resistant to other TRK-targeted therapeutics) is “safe, tolerable”.
Turning to `O=C(Nc1cnn2ccc(N3CCC[C@@H]3c3cc(F)ccc3F)nc12)N1CC[C@H](O)C1` [Larotrectinib, larotrectinib], the “overall response rate (ORR)” value in the series on NTRK fusion cancers (NTRK fusion cancers, current clinical trials) is listed as 75%. The “responses ongoing, share of patients” value with NTRK fusion cancers (at 12 months of treatment) is given as 75-81%. For the same compound, the “CR observed, share of patients” value with NTRK fusion cancers (combined Phase 1, Phase 1/2 and Phase 2 data) is on record as 17%. Moreover, the ORR in the series on NTRK fusion cancers (combined Phase 1, Phase 1/2 and Phase 2 data, adult and pediatric patients, various solid tumors harboring NTRK fusions (88/109)) is 81%. Also, the intracranial efficacy entry in the series with NTRK fusion cancers (individuals with NTRK fusion-positive gliomas or brain metastases) is recorded as “demonstrated”. In addition, in the series with NTRK gene fusions, the “median duration of response” value was 35.2 (22.7—not evaluable [NE]) months and the overall response rate was 79%.
For `CNC(=O)c1nn(C)c2c1C(C)(C)Cc1cnc(Nc3ccc(N4CCN(C)CC4)cc3)nc1-2` [PHA-848125], in the series on tumor xenograft models, the anti-tumor effect result is listed as “anti-tumor effect”. Further, the tumor growth result in series [8] is recorded as “inhibit tumor growth”. In the series on solid tumors [9], the partial response is recorded as 2/14 and the stable disease is listed as 9/28.
For orientation: Kd means the concentration at which binding is half-saturated. Turning to `Cc1cc2nc3c(=O)[nH]c(=O)nc-3n(C)c2cc1C=O` [Ro 08-2750], the Kd on NGF dimer was roughly 1000 nM.
Turning to `C[C@@H](Oc1cc(-c2cnn(C3CCNCC3)c2)cnc1N)c1c(Cl)ccc(F)c1Cl` [crizotinib], in series [10], the clinical responses result is on record as “Durable clinical responses”.
Regarding `CO[C@@H](C(=O)N1Cc2n[nH]c(NC(=O)c3ccc(N4CCN(C)CC4)cc3)c2C1)c1ccccc1` [danusertib], the “inhibition of Ntrk1 / NTRK1” value on TrkA was “inhibit Ntrk1”. Besides, in the series on solid tumors [11], the objective response result is “objective response in one non-small cell lung cancer patient” and the tumor regression result was “tumor regression in an ovarian cancer patient”.
With `CN1CCN(c2ccc(C(=O)Nc3n[nH]c4ccc(Cc5cc(F)cc(F)c5)cc34)c(NC3CCOCC3)c2)CC1` [entrectinib, N-[5-(3,5-Difluorobenzyl)-1H-indazol-3-yl]-4-(4-methyl-1-piperazinyl)-2-(tetrahydro-2H-pyran-4-ylamino)benzamide], in series [12], the clinical benefit result is listed as “Clinical benefit”. Also, in [13], the “sensitivity of cell lines” value is recorded as “preclinical sensitivity”.
In general, IC50 refers to the concentration needed to halve the response being measured. Turning to `NC(=O)Nc1snc(S[C@@H]2CCCCc3ccccc32)c1C(N)=O` [isothiazole 5n], the IC50 on TrkA was less than 1 nM.
With `C[C@]12O[C@H](C[C@]1(O)CO)n1c3ccccc3c3c4c(c5c6ccccc6n2c5c31)CNC4=O` [lestaurtinib, (5S,6S,8R)-6-hydroxy-6-(hydroxymethyl)-5-methyl-7,8,14,15-tetrahydro-5H-16-oxa-4b,8a,14-triaza-5,8-methanodibenzo[b,h]cycloocta[jkl]cyclopenta[e]-as-indacen-13(6H)-one], the tumor growth entry in the series with neuroblastoma xenograft was “inhibit tumor growth”. The “efficacy in clinical trials” value in the series with neuroblastoma is given as “effective”.
